Results reported in patent publication US5401754A, “Agent for treating thrombosis and phosphodiesterase inhibitor” (Otsuka Pharmaceutical Company, Limited, priority 1991, dated 1995).

Experiments:
[1] = system: platelet aggregation (platelet rich plasma); assay: Platelet aggregation inhibitory activity, collagen-induced (Pharmacological test 1); type: cell-based, human beings; conditions: Homo sapiens, Collagen (1 to 4 μg/ml), read-out: Platelet aggregation inhibitory rate (%); for inhibition at 100 µM: Conc. 10^-4 mol; for inhibition at 10 µM: Conc. 10^-5 mol; for inhibition at 1 µM: Conc. 10^-6 mol
Experimental: (§1) The platelet aggregation inhibitory activity of test compounds was measured in accordance with the method of Born et al. [J. Physiol., London, 162, 67, (1962)] using a platelet aggregator [Platelet Aggregation Tracer manufactured by Niko Biosceince K.K.].
(§2) To 9 volumes of blood taken from human beings was added 1 volume of 3.8% citric acid and this sample was centrifuged at 1100 rpm for 10 minutes to give a platelet rich plasma (PRP). The remaining sample was further centrifuged at 3000 rpm for 15 minutes to give a platelet poor plasma (PPP).
(§3) The platelets in the PRP obtained above was counted using Coulter Counter, Coulter electronics inc. and diluted to 300000 platelets/μl with the PPP to prepare a PRP solution.
(§4) A cell for measurement of aggregation was charged with a solution containing a fixed concentration of test compounds (1 to 2 μl) and the PRP solution prepared above (200 μl) and warmed at 37° C. for 1 minute. Then, to the cell was added a suspension of adenosine diphosphate (ADP, manufactured by Sigma) or collagen (Collagen Reagent Horm, manufactured by Hormon-Chemie) to induce platelet aggregation and the transparency of the cell was measured and a platelet aggregation curve was prepared. The final concentration of the above ADP and the collagen was adjusted to 14 to 16 μM and 1 to 4 μg/ml, respectively.
(§5) Maximum Aggregation Rate (MAR) of platelets was calculated from the platelet aggregation curve by the following formula: […]
(§6) wherein (a) represents the transparency of PRP measured in the similar test, (b) represents the transparency of the PRP solution containing the test compound and the aggregation inducer at the time of maximum change in the above test, and (c) represents the transparency of the PPP solution measured in the similar test.
(§7) MAR for control with no addition of the test compound was also calculated, and based on this value, the platelet aggregation inhibitory rate (%) of each test compound at various concentrations in the above test was calculated from the following formula:
(§8) Inhibitory rate=[1-(MAR of PRP with addition of test compound)/(MAR of PRP
(§9) with no addition of test compound)]×100

[2] = system: platelet aggregation (platelet rich plasma); assay: Platelet aggregation inhibitory activity, ADP-induced (Pharmacological test 1); type: cell-based, human beings; conditions: Homo sapiens, ADP (14 to 16 μM), read-out: Platelet aggregation inhibitory rate (%); for inhibition at 100 µM: Conc. 10^-4 mol; for inhibition at 10 µM: Conc. 10^-5 mol; for inhibition at 1 µM: Conc. 10^-6 mol
Experimental: as §1, §2, §3, §4, §5, §6, §7, §8, §9

C-AMP phosphodiesterase = C-AMP phosphodiesterase inhibitory activity (Pharmacological test 2); type: biochemical, dog; conditions: C-AMP 0.4 μmol
[3] = system: aggregates of platelet (platelet rich plasma); assay: Platelet aggregate dissociation, ADP-induced aggregates (Pharmacological Test 4); type: cell-based, human beings; conditions: Homo sapiens, 5 min, after 5 minutes, read-out: Platelet aggregate dissociation rate (%)
Experimental: as §2, §3
(§10) In the same manner as in the above test 1, the obtained PRP solution (200 μl ) was put in cell for measurement of aggregation and the cell was warmed at 37° C. for 1 minute. Thereto was added ADP or collagen suspension (final concentration of 14 to 16 μM and 1 to 4 μg/ml, respectively) without addition of the test compound to form aggregates of platelet. MAR was determined after stable transparency was obtained. This MAR was referred to as "MAR-1". Then, the test compound was added and MAR was determined from the transparency after 5 minutes. This MAR was referred to as "MAR-2".
(§11) Platelet aggregate dissociation rate (%) was calculated in accordance with the following formula: […]
(§12) Platelet aggregate dissociation rate
(§13) (%)=[(MAR-1)-(MAR-2)]/(MAR-1)×100

Cerebellum blood flow = assay: Topical blood flow in the cerebellum, colored microspheres, anesthetized dog (Pharmacological Test 3); type: in vivo, hybrid dog
[4] = system: aggregates of platelet (platelet rich plasma); assay: Platelet aggregate dissociation, collagen-induced aggregates (Pharmacological Test 4); type: cell-based, human beings; conditions: Homo sapiens, 5 min, after 5 minutes, read-out: Platelet aggregate dissociation rate (%)
Experimental: as §2, §3, §10, §11, §12, §13

Brain blood flow = assay: Topical blood flow in the brain, colored microspheres, anesthetized dog (Pharmacological Test 3); type: in vivo, hybrid dog
[5] = 3 μg/kg/min i.v. over 30 minutes
[6] = 10 μg/kg/min i.v. over 30 minutes

| Phosphodiesterase inhibitory rate (%) (C-AMP phosphodiesterase; Conc. 10^-4 mol) | Phosphodiesterase inhibitory rate (%) (C-AMP phosphodiesterase; Conc. 10^-5 mol) | SMILES | inhibition at 100 µM [1] [%] | inhibition at 10 µM [1] [%] | inhibition at 1 µM [1] [%] | inhibition at 100 µM [2] [%] | inhibition at 10 µM [2] [%] | inhibition at 1 µM [2] [%] | inhibition at 10 µM ([3]; Conc. 10 μmol) [%] | inhibition at 30 µM ([3]; Conc. 30 μmol) [%] | inhibition at 100 µM ([3]; Conc. 100 μmol) [%] | Increasing rate of blood flow (%) (Cerebellum blood flow; [5]) | Increasing rate of blood flow (%) (Cerebellum blood flow; [6]) | inhibition at 10 µM ([4]; Conc. 10 μmol) [%] | inhibition at 30 µM ([4]; Conc. 30 μmol) [%] | inhibition at 100 µM ([4]; Conc. 100 μmol) [%] | Increasing rate of blood flow (%) (Brain blood flow; [5]) | Increasing rate of blood flow (%) (Brain blood flow; [6]) |
| --- | --- | --- | --- | --- | --- | --- | --- | --- | --- | --- | --- | --- | --- | --- | --- | --- | --- | --- |
|  |  | COc1ccc(CNCC(O)COc2ccc3[nH]c(=O)ccc3c2)cc1 (stereo not shown) [compound 6] | 97 | 96.7 | 17 | 77.5 | 43.8 | 7.4 |  |  |  |  |  |  |  |  |  |  |
|  |  | CN(Cc1ccccc1)CC(O)COc1ccc2[nH]c(=O)ccc2c1 (stereo not shown) [compound 1] | 96.3 | 70.7 | 3.8 | 79 | 31.7 | 14.9 |  |  |  |  |  |  |  |  |  |  |
| 50.63 | 89.07 | CCOc1ccc(CNCC(O)COc2ccc3[nH]c(=O)ccc3c2)cc1OCC (stereo not shown) [compound 9] |  |  |  |  |  |  |  |  |  |  |  |  |  |  |  |  |
|  |  | CN(CCN(C)c1ccccc1)CC(O)COc1ccc2[nH]c(=O)ccc2c1 (stereo not shown) [compound 5] | 96.5 | 72.9 | 44.4 | 84.8 | 38.4 | 21.6 |  |  |  |  |  |  |  |  |  |  |
|  |  | CN(Cc1ccccn1)CC(O)COc1ccc2[nH]c(=O)ccc2c1 (stereo not shown) [compound 4] | 97.2 | 64.3 |  | 77.5 | 30.5 | 13.5 |  |  |  |  |  |  |  |  |  |  |
| 32.46 | 86.11 | O=c1ccc2cc(OCC(O)CNCc3ccc(Cl)cc3)ccc2[nH]1 (stereo not shown) [compound 3] | 97.8 | 96.7 | 17 | 78.2 | 44.5 | 13.2 |  |  |  |  |  |  |  |  |  |  |
|  |  | O=c1ccc2cc(OCC(O)CNCc3cccc(Cl)c3)ccc2[nH]1 (stereo not shown) [compound 8] | 93.1 | 27.7 | 12.3 | 62 | 27.4 | 5.1 |  |  |  |  |  |  |  |  |  |  |
| 23.90 | 74.63 | O=c1ccc2cc(OCC(O)CN(CCO)Cc3ccc(F)cc3)ccc2[nH]1 (stereo not shown) [compound 10] |  |  |  |  |  |  |  |  |  |  |  |  |  |  |  |  |
| 2.32 | 48.63 | COc1cccc(CNCC(O)COc2ccc3[nH]c(=O)ccc3c2)c1 (stereo not shown) [compound 2] | 97.2 | 95.7 | 23.1 | 89.1 | 43.9 | 14.9 |  |  |  |  |  |  |  |  |  |  |
| 15.27 | 72.39 | COc1ccc(CNCC(O)COc2ccc3[nH]c(=O)ccc3c2)cc1OC (stereo not shown) [compound 7] | 96.9 | 91.6 | 4.1 | 96.4 | 39 | 9.5 | 41.5 | 43.3 | 71.7 | 15.2 ± 11.5 | 29.7 ± 11.5 | 13.3 | 26.7 | 28 | 25.9 ± 7.0 | 57.8 ± 10.9 |
